Test results from ChEMBL document CHEMBL4396965.

How the values were obtained:
Type in all cases: cell-based
PBMC = assay: (§1) Cytotoxicity against human PBMC cells; details: pbmc
CCRF-CEM = assay: Cytotoxicity against human CEM cells
Vero = assay: Cytotoxicity against African green monkey Vero cells; details: chlorocebus sabaeus
Huh-7 = assay: Cytotoxicity against human HuH7 cells
A549 = assay: Cytotoxicity against human A549 cells
[1] = as §1; details: PBMC cells

SMILES | CC50 (PBMC) | CC50 (CCRF-CEM) | CC50 (Vero) | CC50 (Huh-7) | CC50 (A549) | CC50 [1]
O=C(O)[C@H]1C2C=CC(CC2)[C@@H]1Nc1nc(-c2c[nH]c3ncc(F)cc23)nc2sccc12 (some centres not stated) | 9.3 µM | 4.2 µM | 65.9 µM | 24 µM | 14.5 µM | 
O=C(O)[C@H]1C2C=CC(CC2)[C@@H]1Nc1nc(-c2n[nH]c3ncc(F)cc23)ncc1F (some centres not stated) | > 100 µM | 48.9 µM | > 100 µM | 83 µM | 30.6 µM | 
Cn1cnc2c(N[C@H]3C4C=CC(CC4)[C@@H]3C(=O)O)nc(-c3c[nH]c4ncc(F)cc34)nc21 (some centres not stated) | > 100 µM | 29.1 µM | > 100 µM | > 100 µM | ≥ 100 µM | 
O=C(O)[C@H]1C2C=CC(C2)[C@@H]1Nc1nc(-c2c[nH]c3ncc(F)cc23)ncc1F (some centres not stated) | > 100 µM | > 100 µM | > 100 µM | > 100 µM | > 100 µM | 
O=C(O)[C@H]1C2CCC(CC2)[C@@H]1Nc1nc(-c2c[nH]c3ncc(F)cc23)ncc1F [PIMODIVIR] | > 100 µM | 48.9 µM | > 100 µM | 95.8 µM | 20 µM | 
Cn1cnc2nc(-c3c[nH]c4ncc(F)cc34)nc(N[C@H]3C4C=CC(CC4)[C@@H]3C(=O)O)c21 (some centres not stated) | > 100 µM | > 100 µM | > 100 µM | > 100 µM | > 100 µM | 
O=C(O)[C@H]1C2CCC(C3CC32)[C@@H]1Nc1nc(-c2c[nH]c3ncc(F)cc23)ncc1F (some centres not stated) | > 100 µM | 62.9 µM | > 100 µM |  | 94.6 µM | 
O=C(O)[C@H]1C2C=CC(CC2)[C@@H]1c1nnc2c(F)cnc(-c3c[nH]c4ncc(F)cc34)n12 (some centres not stated) | ≥ 100 µM | 41.7 µM | ≥ 100 µM | ≥ 100 µM | 65.4 µM | 
O=C(O)C12CC3CC(CC(Nc4nc(-c5c[nH]c6ncc(F)cc56)ncc4F)(C3)C1)C2 | 23.1 µM | 10.1 µM | 30.3 µM | 14.3 µM | 16.2 µM | 
Cc1cc2nc(-c3c[nH]c4ncc(F)cc34)nc(N[C@H]3C4C=CC(CC4)[C@@H]3C(=O)O)c2s1 (some centres not stated) | 78.4 µM | 12.9 µM | 90.3 µM | 31.2 µM | 41.7 µM | 
O=C(O)[C@H]1C2C=CC(CC2)[C@@H]1Nc1nc(-c2c[nH]c3ncc(F)cc23)ncc1F (some centres not stated) |  | 91.1 µM | > 100 µM |  |  | > 100 µM
O=C(O)[C@H]1C2C=CC(CC2)[C@@H]1Nc1nc(-c2n[nH]c3ncc(F)cc23)nc2sccc12 (some centres not stated) | > 100 µM | 13.7 µM | > 100 µM | 62.7 µM | > 100 µM | 
O=C(O)[C@H]1C2C=CC(CC2)[C@@H]1Nc1cc2nncn2c(-c2c[nH]c3ncc(F)cc23)n1 (some centres not stated) | > 100 µM | 30.8 µM | > 100 µM | 71 µM | 51.9 µM | 
O=C(O)[C@H]1C2C=CC(CC2)[C@@H]1Nc1nc2cnc(-c3c[nH]c4ncc(F)cc34)nc2s1 (some centres not stated) | 84.8 µM | 17.3 µM | 86.1 µM | 70.2 µM | 31.3 µM | 
Cc1csc2c(N[C@H]3C4C=CC(CC4)[C@@H]3C(=O)O)nc(-c3c[nH]c4ncc(F)cc34)nc12 (some centres not stated) | > 100 µM | > 100 µM | > 100 µM | > 100 µM | > 100 µM | 
O=C(O)[C@H]1C2C=CC(CC2)[C@@H]1Nc1nc(-c2c[nH]c3ncc(F)cc23)nc2ccsc12 (some centres not stated) | 64.6 µM | 31.6 µM | 74.9 µM | 68.7 µM | 14.7 µM | 
O=C(O)[C@H]1C2C=CC(CC2)[C@@H]1Nc1nc(-c2n[nH]c3ncc(F)cc23)nc2ccsc12 (some centres not stated) | > 100 µM | 67 µM | 52.5 µM | 70.7 µM | 32.5 µM | 
